Columns and labels:
ERα LBD = molecular target: T1, ERα LBD (Homo sapiens, UniProt P03372); assay: Ability to bind to ERα: pBIND-ERα LBD / GAL4 luciferase reporter in HEK293 cells; type: cell-based; set-up: key: firefly luciferase / Renilla luciferase luminescence ratio; conditions: negative control 0.00847035
T1 construct: host or cells: HEK293
T1 sequence (P03372 311-547 limits assumed): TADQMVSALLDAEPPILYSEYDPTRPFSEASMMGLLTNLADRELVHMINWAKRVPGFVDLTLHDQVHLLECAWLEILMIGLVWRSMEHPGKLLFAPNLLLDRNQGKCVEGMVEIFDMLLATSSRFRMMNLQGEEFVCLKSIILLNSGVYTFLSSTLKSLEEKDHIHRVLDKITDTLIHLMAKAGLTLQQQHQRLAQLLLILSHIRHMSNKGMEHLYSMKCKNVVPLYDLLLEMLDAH
Experimental: A human kidney-derived cell line HEK293 was cultured (37° C., 5% CO2) in Dulbecco's modified Eagle medium (hereinafter, abbreviated to DMEM) containing 10% (v/v) fetal bovine serum (FBS) and penicillin/streptomycin.
2) Measurement of Binding Activity Against ERs
Specifically, HEK293 cells were inoculated at a cell density of 4.0×10^4 cells/well to a 96-well plate. After 12 hours therefrom, the medium was replaced with a culture solution (DMEM containing 5% (v/v) charcoal-treated serum). The cells were cotransfected with pBIND-ERα for the expression of ERα LBD or pBIND-ERβ for the expression of ERβ LBD (Promega Corp.) and pGL4.35[luc2P/9XGAL4UAS/Hygro](Promega Corp.) using Lipofectamine 2000 (Invitrogen Corp.) according to the protocol attached to the product. 24 hours after transfection, the medium was replaced with a culture solution containing a test sample, followed by culture for another 24 hours. The activity measurement of firefly luciferase (index for the ligand binding activity of ER) and Renilla reniformis luciferase (index for the transfection efficiency of the plasmids) was carried out using Dual-Glo™ Luciferase Assay System (Promega Corp.) according to the attached protocol. The luminescence intensity of the firefly luciferase was divided by the luminescence intensity of the Renilla reniformis luciferase to calculate a relative light unit (RLU).

ERα = molecular target: T2, ERα (Homo sapiens, UniProt P03372); assay: Ability to activate transcription mediated by ERα (pcDNA3-ERα, pERE luciferase, HEK293 cells); type: cell-based; conditions: negative control 0.004573
T2 construct: host or cells: HEK293
T2 sequence (P03372 1-595): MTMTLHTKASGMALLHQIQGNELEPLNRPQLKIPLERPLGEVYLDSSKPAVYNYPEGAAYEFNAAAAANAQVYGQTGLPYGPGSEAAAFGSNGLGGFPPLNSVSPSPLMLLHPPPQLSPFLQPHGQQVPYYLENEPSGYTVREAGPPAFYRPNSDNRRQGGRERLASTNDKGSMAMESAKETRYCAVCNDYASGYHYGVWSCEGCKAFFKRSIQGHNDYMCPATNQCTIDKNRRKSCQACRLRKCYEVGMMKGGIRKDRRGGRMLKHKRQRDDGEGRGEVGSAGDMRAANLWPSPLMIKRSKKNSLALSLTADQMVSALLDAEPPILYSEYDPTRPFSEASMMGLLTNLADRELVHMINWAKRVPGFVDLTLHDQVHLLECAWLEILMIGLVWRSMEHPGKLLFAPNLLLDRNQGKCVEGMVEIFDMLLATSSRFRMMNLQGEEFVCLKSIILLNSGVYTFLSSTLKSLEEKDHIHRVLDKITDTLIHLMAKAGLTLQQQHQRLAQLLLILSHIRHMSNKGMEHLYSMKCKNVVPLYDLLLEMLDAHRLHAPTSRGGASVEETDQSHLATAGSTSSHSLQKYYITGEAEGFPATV
Experimental: 1) Experimental Method (Measurement of Transcriptional Activity Mediated by ERs)
HEK293 cells were inoculated at a cell density of 4.0×10^4 cells/well to a 96-well plate. After 12 hours therefrom, the medium was replaced with a culture solution (DMEM containing 5% (v/v) charcoal-treated serum). The cells were cotransfected with pcDNA3-ERα or pcDNA3-ERβ (Promega Corp.) and pERE and pRL-CMV (Promega Corp.) using Lipofectamine 2000 (Invitrogen Corp.) according to the protocol attached to the product. 24 hours after transfection, the medium was replaced with a culture medium containing a test sample, followed by culture for another 24 hours. Then, luciferase activity was measured using Dual-Glo™ Luciferase Assay System (Promega Corp.) according to the attached protocol. The luminescence intensity of firefly luciferase (index for the ability to activate transcription mediated by ERE) was divided by the luminescence intensity of Renilla reniformis luciferase (index for the transfection efficiency of the plasmids) to calculate a relative light unit (RLU).

[1] = test system: back skin browning induced by testosterone; assay: Effect on sebum secretion (back skin browning) in testosterone-treated rat; type: in vivo; conditions: testosterone 3 mg/kg/day plus test substance, subcutaneous osmotic pump, 28 days
Source text: 12-week-old male Slc:SD (SPF) rats were obtained from Japan SLC, Inc. An acclimatization period was established for 1 week after receipt. During the acclimatization period, the rats were allowed to freely ingest a powder diet (AIN-93G). 2) Implantation of Osmotic Pump After body weight measurement, back hair was shaved under isoflurane (AbbVie GK) inhalation anesthesia, and carprofen was subcutaneously administered to the rats. Then, an incision of approximately 1 cm at the maximum was made on the cranial side in the back. An osmotic minipump Alzet (Muromachi Kikai Co., Ltd.) containing testosterone and compound 17-F or finasteride (Sigma-Aldrich Co. LLC) was subcutaneously implanted. From this osmotic pump, testosterone (3 mg/kg body weight/day) (Sigma-Aldrich Co. LLC) and compound 17-F (0.1 mg/body weight/day or 1 mg/kg body weight/day) or finasteride (0.1 mg/kg body weight/day or 1 mg/kg body weight/day) were continuously administered for 28 days. Since the implantation of the osmotic pump, the rats were allowed to freely ingest customized feed AIN-93G (Oriental Yeast Co., Ltd.) free from components derived from soybeans. 3) Photographing of Skin and Harvesting of Prostate After a lapse of 28 days, body weights were measured, and subsequently, the rats were euthanized by blood letting under isoflurane anesthesia. […] Wet weights were measured. […]

- relative light unit (RLU), ligand binding activity ERα (ERα LBD; 0.01 nM): 0.02573
- relative light unit (RLU), ligand binding activity ERα (ERα LBD; 0.1 nM): 0.06025
- relative light unit (RLU), ligand binding activity ERα (ERα LBD; 1 nM): 0.2198
- relative light unit (RLU), ligand binding activity ERα (ERα LBD; 10 nM): 1.873
- relative light unit (RLU), ligand binding activity ERα (ERα LBD; 100 nM): 3.193
- relative light unit (RLU), transcription activation ERα (ERα; 0.1 pM): 0.008213
- relative light unit (RLU), transcription activation ERα (ERα; 1 pM): 0.01023
- relative light unit (RLU), transcription activation ERα (ERα; 10 pM): 0.01835
- relative light unit (RLU), transcription activation ERα (ERα; 100 pM): 0.04125
- relative light unit (RLU), transcription activation ERα (ERα; 1000 pM): 0.06202
- relative light unit (RLU), transcription activation ERα (ERα; 10000 pM): 0.05401
SMILES: Oc1ccc(CC(C=C(F)F)c2ccc(O)cc2F)c(F)c1 (stereo not drawn) [Compound 17-F, 4,4′-(4,4-difluorobut-3-ene-1,2-diyl)bis(3-fluorophenol)]
- skin browning induced by testosterone (sebum secretion, FIG. 3) [1]: markedly inhibited

— patent US11453632B2, “1-phenyl-2-phenylethane derivative” (KAO CORPORATION, priority 2018, dated 2022)
